Reference: BigSolDB 2.1

O=C(O)Cc1ccc([N+](=O)[O-])cc1
solubility (mole fraction)
Conditions | 283.15 K | 288.15 K | 293.15 K | 298.15 K | 303.15 K | 308.15 K | 313.15 K | 318.15 K | 323.15 K | 328.15 K
in DMAc | 0.0895 | 0.1 | 0.114 | 0.131 | 0.149 | 0.169 | 0.191 | 0.216 | 0.24 | 0.271
in DMF | 0.161 | 0.178 | 0.2 | 0.225 | 0.251 | 0.28 | 0.311 | 0.342 | 0.377 | 0.417
in acetonitrile | 0.0193 | 0.0223 | 0.0266 | 0.0312 | 0.0375 | 0.0449 | 0.0535 | 0.0639 | 0.0761 | 0.0918
in cyclohexane | 1.2e-05 | 1.69e-05 | 2.3e-05 | 3.11e-05 | 4.12e-05 | 5.45e-05 | 7.11e-05 | 9e-05 | 0.000113 | 0.00014
in ethanol | 0.0758 | 0.0849 | 0.0979 | 0.111 | 0.128 | 0.148 | 0.17 | 0.196 | 0.223 | 0.254
in ethyl acetate | 0.0309 | 0.0352 | 0.041 | 0.0487 | 0.0576 | 0.0694 | 0.0823 | 0.098 | 0.116 | 0.137
in ethylene glycol | 0.0168 | 0.0185 | 0.0213 | 0.0254 | 0.0301 | 0.0361 | 0.0428 | 0.0503 | 0.0596 | 0.0723
in isobutanol | 0.025 | 0.0282 | 0.0323 | 0.0389 | 0.0464 | 0.0554 | 0.0658 | 0.0776 | 0.0917 | 0.11
in isopropanol | 0.028 | 0.031 | 0.0373 | 0.0455 | 0.0542 | 0.065 | 0.0768 | 0.0914 | 0.109 | 0.131
in methanol | 0.125 | 0.137 | 0.155 | 0.174 | 0.195 | 0.218 | 0.245 | 0.274 | 0.305 | 0.341
in n-butanol | 0.0498 | 0.0564 | 0.0653 | 0.0758 | 0.0877 | 0.101 | 0.117 | 0.135 | 0.156 | 0.178
in n-propanol | 0.0518 | 0.0589 | 0.0683 | 0.0784 | 0.0916 | 0.106 | 0.124 | 0.145 | 0.168 | 0.193
in water | 0.000141 | 0.00017 | 0.000209 | 0.000264 | 0.000336 | 0.000422 | 0.000528 | 0.000663 | 0.000816 | 0.00101
